The text below walks through data of ChEMBL document CHEMBL1909046, “DrugMatrix in vitro pharmacology data”.

Experiment [1] can be described thus: DRUGMATRIX: Platelet-Derived Growth Factor (PDGF) radioligand binding (ligand: [125I] PDGF). The format is cell-based. As to conditions: nih3t3; Not Active = under 50% inhibition at 10 µM.
For experiment [2], the target named is Beta-3 adrenergic receptor (Homo sapiens, UniProt P13945). The experiment can be described thus: DRUGMATRIX: Adrenergic beta3 radioligand binding (ligand: [125I] Cyanopindolol). The class given is cell membranes, HEK293, Membrane. As to conditions: hek293; Not Active = under 50% inhibition at 10 µM.
Chain of Beta-3 adrenergic receptor (P13945 whole entry): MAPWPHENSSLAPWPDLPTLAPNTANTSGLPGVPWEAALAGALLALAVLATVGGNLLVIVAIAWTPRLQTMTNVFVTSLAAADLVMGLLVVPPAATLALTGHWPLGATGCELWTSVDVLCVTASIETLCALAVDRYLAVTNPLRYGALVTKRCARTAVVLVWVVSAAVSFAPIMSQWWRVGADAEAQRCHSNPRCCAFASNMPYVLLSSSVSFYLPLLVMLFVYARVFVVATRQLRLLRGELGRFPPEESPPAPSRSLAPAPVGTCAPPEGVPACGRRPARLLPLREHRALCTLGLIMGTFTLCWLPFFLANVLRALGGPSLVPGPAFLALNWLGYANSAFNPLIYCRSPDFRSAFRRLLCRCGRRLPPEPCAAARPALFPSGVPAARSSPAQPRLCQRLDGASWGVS
Experiment [3] deals with T1, Muscarinic acetylcholine receptor M5 (Homo sapiens, UniProt P08912).
T1 sequence (P08912 whole entry): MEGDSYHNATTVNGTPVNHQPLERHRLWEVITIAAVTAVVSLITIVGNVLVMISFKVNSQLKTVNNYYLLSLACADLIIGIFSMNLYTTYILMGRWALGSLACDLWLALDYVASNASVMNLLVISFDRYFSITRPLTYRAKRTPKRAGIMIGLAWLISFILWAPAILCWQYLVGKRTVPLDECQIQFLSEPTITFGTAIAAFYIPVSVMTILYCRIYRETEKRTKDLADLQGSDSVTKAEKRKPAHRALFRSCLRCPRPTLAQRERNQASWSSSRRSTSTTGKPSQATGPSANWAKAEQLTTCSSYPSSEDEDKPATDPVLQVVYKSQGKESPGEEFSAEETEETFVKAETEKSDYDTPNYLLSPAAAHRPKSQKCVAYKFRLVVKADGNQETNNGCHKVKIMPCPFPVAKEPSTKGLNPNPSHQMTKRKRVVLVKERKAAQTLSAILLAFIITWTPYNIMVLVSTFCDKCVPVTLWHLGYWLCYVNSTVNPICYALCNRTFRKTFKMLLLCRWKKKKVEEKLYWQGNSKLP
The class given is cell membranes, CHO-K1, Membrane. The following applies: for IC50: cho-k1.

For experiment [4], the target named is Prostaglandin G/H synthase 1 (Homo sapiens, UniProt P23219). The experiment can be described thus: biochemical. The format is tissue-based, Platelet. The following applies: platelet.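 Note: inhibition of COX-1 enzyme activity, with arachidonic acid supplied as substrate; in other assays of this panel Not Active means under 50% inhibition at 10 µM.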
Chain of Prostaglandin G/H synthase 1 (P23219 whole entry): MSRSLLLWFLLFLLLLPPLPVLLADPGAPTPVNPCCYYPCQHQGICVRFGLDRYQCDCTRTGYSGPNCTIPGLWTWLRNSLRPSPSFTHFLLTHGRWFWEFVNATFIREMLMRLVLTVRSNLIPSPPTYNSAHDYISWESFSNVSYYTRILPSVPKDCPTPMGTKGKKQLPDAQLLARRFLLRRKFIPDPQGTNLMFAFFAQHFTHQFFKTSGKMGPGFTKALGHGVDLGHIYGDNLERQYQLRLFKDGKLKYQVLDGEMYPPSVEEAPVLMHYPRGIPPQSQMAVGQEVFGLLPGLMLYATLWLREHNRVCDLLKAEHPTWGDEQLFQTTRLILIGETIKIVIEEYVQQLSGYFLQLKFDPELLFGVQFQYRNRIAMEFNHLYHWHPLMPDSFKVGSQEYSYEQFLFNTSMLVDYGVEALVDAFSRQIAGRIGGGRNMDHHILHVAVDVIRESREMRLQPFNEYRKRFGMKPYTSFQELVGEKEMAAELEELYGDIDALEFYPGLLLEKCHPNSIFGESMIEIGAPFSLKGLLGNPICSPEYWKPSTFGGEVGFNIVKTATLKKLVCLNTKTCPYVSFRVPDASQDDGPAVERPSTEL
Experiment [5] concerns the target T2, Angiotensin-converting enzyme (Oryctolagus cuniculus, UniProt P12822).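 Note: enzymatic inhibition of angiotensin-converting enzyme measured with FAPGG as the substrate; in other assays of this panel Not Active means under 50% inhibition at 10 µM.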
T2 sequence (P12822 whole entry): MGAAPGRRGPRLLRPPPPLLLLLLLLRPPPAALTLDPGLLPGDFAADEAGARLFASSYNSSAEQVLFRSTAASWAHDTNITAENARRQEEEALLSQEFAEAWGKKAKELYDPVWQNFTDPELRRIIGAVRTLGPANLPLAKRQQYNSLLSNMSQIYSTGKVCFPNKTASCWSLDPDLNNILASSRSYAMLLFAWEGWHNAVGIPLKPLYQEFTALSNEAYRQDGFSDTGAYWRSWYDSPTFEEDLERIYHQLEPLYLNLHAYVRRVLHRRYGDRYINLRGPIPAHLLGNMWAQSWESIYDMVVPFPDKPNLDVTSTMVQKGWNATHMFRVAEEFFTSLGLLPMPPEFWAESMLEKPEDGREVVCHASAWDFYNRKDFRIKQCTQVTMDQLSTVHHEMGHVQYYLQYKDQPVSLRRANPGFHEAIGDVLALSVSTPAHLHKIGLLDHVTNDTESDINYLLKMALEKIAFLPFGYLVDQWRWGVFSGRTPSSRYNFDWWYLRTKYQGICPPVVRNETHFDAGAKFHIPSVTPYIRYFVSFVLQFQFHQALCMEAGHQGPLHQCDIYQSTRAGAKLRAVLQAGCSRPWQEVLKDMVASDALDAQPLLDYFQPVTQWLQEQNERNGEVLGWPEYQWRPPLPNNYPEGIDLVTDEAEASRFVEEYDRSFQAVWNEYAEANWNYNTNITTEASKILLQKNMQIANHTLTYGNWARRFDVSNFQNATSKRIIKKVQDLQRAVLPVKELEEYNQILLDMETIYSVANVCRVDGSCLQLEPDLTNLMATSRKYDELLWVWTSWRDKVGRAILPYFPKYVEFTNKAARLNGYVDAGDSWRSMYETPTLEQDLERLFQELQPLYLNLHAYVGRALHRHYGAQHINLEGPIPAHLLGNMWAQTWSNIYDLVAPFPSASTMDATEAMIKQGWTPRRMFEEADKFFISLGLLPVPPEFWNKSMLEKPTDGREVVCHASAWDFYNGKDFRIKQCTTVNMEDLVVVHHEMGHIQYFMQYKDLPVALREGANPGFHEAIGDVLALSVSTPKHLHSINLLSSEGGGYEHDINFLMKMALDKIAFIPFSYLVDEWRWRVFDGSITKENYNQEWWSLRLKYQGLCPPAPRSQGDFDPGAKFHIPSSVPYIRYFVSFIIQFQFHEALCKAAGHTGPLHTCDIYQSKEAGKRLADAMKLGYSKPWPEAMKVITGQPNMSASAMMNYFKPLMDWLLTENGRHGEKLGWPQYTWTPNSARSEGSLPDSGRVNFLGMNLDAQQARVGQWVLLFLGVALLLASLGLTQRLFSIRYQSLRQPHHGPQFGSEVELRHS
The experiment can be described thus: biochemical. The format is tissue-based, Lung.

Experiment [6] has as its target C-C chemokine receptor type 2 (Homo sapiens, UniProt P41597). The format is cell membranes, CHO-K1, Membrane. The following applies: cho-k1. Note: in other assays of this panel Not Active means under 50% inhibition at 10 µM.
A short description of experiment [7]: DRUGMATRIX: Calcium Channel Type L, Benzothiazepine radioligand binding (ligand: [3H] Diltiazem). The class given is cell membranes, Rattus norvegicus, Wistar, Brain, Membrane. As to conditions: Not Active = under 50% inhibition at 10 µM.
Experiment [8] concerns the target T3, Cathepsin G (Homo sapiens, UniProt P08311).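 Note: inhibition of Cathepsin G enzyme activity, tested on an AMC-conjugated peptide substrate; in other assays of this panel Not Active means under 50% inhibition at 10 µM.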
T3 sequence (P08311 whole entry): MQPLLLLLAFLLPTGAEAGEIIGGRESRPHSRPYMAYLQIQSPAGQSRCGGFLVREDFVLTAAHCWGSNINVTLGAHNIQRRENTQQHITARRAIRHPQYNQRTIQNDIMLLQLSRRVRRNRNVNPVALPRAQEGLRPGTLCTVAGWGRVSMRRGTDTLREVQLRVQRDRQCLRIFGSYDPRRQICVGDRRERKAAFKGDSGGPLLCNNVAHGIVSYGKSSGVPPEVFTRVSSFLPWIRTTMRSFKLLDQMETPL
The class given is tissue-based. As to conditions: neutrophil.

Experiment [9] is described as follows: DRUGMATRIX: Glutamate, NMDA, Phencyclidine radioligand binding (ligand: [3H] TCP). The format is cell membranes, Rattus norvegicus, Wistar, Cerebral cortex, Membrane. The following applies: Not Active = under 50% inhibition at 10 µM.
For experiment [10], the target named is T4, C-X-C chemokine receptor type 1 (Homo sapiens, UniProt P25024). Note: in other assays of this panel Not Active means under 50% inhibition at 10 µM.
T4 sequence (P25024 whole entry): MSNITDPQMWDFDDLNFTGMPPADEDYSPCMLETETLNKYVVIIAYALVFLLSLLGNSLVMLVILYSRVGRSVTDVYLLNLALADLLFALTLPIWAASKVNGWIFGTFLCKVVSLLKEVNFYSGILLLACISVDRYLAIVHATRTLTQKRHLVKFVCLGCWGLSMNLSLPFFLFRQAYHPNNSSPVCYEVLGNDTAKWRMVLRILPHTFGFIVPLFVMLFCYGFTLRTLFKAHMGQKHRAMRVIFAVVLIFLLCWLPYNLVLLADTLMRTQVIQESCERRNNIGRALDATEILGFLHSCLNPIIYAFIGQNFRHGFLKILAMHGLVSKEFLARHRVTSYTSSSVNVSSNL

pIC50, pKi: −log10 of the molar value.

As a reminder, the pIC50 is −log10 of the IC50, conventionally taken in molar units. In general, pKi refers to the negative decadic logarithm of the Ki, by convention in mol/L.

Chain of C-C chemokine receptor type 2 (P41597 whole entry): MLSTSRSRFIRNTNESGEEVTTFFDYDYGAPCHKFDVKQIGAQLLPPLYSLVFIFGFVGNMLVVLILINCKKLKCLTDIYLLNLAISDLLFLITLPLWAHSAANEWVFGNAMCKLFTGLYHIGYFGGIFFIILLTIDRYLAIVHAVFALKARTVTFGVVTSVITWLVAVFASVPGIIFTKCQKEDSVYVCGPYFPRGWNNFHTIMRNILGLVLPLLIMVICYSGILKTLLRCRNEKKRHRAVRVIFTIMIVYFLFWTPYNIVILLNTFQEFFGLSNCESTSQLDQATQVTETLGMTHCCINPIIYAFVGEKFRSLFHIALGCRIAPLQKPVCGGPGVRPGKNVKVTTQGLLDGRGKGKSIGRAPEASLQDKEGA

Regarding `Cc1ccc(C(=O)C(C)CN2CCCCC2)cc1` (configuration not stated) [TOLPERISONE], the IC50 result in experiment [1], in experiment [2], in experiment [3], in experiment [4], in [5] and in experiment [6] was “Not Active” each time. Further, the IC50 result in [7], in experiment [8], in [9] and in experiment [10] was “Not Active” in each case. For the same compound, the Ki result in experiment [1], in [7] and in experiment [9] was “Not Active” each time.

For `NC(CO)(CO)CO` [TROMETHAMINE], the IC50 entry in experiment [1], in experiment [2], in experiment [3], in experiment [4], in experiment [5] and in experiment [6] was “Not Active” throughout. The IC50 entry in [7], in [8], in [9] and in [10] was “Not Active” in each case. Also, the Ki result in [1], in [7] and in experiment [9] was “Not Active” each time.

As for `CN1[C@@H]2CC[C@H]1C[C@@H](OC(=O)c1c[nH]c3ccccc13)C2` [TROPISETRON], the IC50 entry in [1], in experiment [2], in experiment [4], in experiment [5], in experiment [6] and in experiment [7] was “Not Active” throughout. Besides, the IC50 entry in experiment [8], in experiment [9] and in experiment [10] was “Not Active” throughout. Further, the Ki entry in experiment [1], in experiment [7] and in experiment [9] was “Not Active” each time. The negative-log IC50 (pIC50) in experiment [3] (read-out: IC50) is 5.46. In experiment [3] (read-out: Ki), the pKi was 5.61.

On to `COc1cc(C(=O)NC2CCCNC2)cc(OC)c1OC` (configuration not stated) [TROXIPIDE], for which the IC50 entry in experiment [1], in experiment [2], in experiment [3], in experiment [4], in [5] and in experiment [6] was “Not Active” in each case. Besides, the IC50 result in [7], in experiment [8], in [9] and in experiment [10] was “Not Active” each time. The Ki result in experiment [1], in experiment [7] and in experiment [9] was “Not Active” each time.

`CC(C)[C@H](N)C(=O)OCCOCn1cnc2c(=O)nc(N)[nH]c21` [VALACYCLOVIR]: the IC50 result in experiment [1], in [2], in [3], in experiment [4], in experiment [5] and in experiment [6] was “Not Active” throughout. The IC50 entry in [7], in experiment [8], in experiment [9] and in experiment [10] was “Not Active” each time. The Ki result in experiment [1], in [7] and in experiment [9] was “Not Active” in each case.

On to `CN[C@H](CC(C)C)C(=O)N[C@H]1C(=O)N[C@@H](CC(N)=O)C(=O)N[C@H]2C(=O)N[C@H]3C(=O)N[C@H](C(=O)N[C@H](C(=O)O)c4cc(O)cc(O)c4-c4cc3ccc4O)[C@H](O)c3ccc(c(Cl)c3)Oc3cc2cc(c3O[C@@H]2O[C@H](CO)[C@@H](O)[C@H](O)[C@H]2O[C@H]2C[C@](C)(N)[C@H](O)[C@H](C)O2)Oc2ccc(cc2Cl)[C@H]1O` [VANCOMYCIN], for which the IC50 entry in [1], in [2], in experiment [3], in experiment [4], in experiment [5] and in [6] was “Not Active” each time. The IC50 result in experiment [7], in experiment [8], in experiment [9] and in experiment [10] was “Not Active” each time. In addition, the Ki result in experiment [1], in [7] and in experiment [9] was “Not Active” each time.

For `COc1ccc(C(CN(C)C)C2(O)CCCCC2)cc1` (configuration not stated) [VENLAFAXINE], the IC50 result in experiment [1], in experiment [2], in [3], in [4], in experiment [5] and in [6] was “Not Active” throughout. The IC50 result in [7], in experiment [8], in experiment [9] and in [10] was “Not Active” in each case. Also, the Ki entry in [1], in experiment [7] and in experiment [9] was “Not Active” throughout.
